According to patent US9113629B2, “4-amino-6-(4-substituted-phenyl)-picolinates and 6-amino-2-(4-substituted-phenyl)-pyrimidine-4-carboxylates and their use as herbicides” (DOW AGROSCIENCES LLC, priority 2013, dated 2015):

tested on: test plant species in Direct Seeded Rice; test: Postemergence herbicidal activity in direct seeded rice (Table 13); assay type: in vivo; settings: BRAPP: broadleaf signalgrass, Brachiaria platyphylla; probit analysis
Summary of the method: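 Greenhouse-grown plants at the second or third true leaf stage were sprayed postemergence at 187 L/ha with compound in acetone/DMSO (final 16.2%/0.5%) plus aqueous Agri-dex crop oil concentrate; controls got solvent blank. Injury was rated visually 0–100% after 20-22 days, and GR20, GR50, GR80 and GR90 derived by probit analysis.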

Row | Compound | GR50 BRAPP [g ai/ha] | GR80 BRAPP [g ai/ha]
1 | COC(=O)c1nc(-c2ccc(Br)c(F)c2F)nc(N)c1OC [Compound 122, methyl 6-amino-2-(4-bromo-2,3-difluorophenyl)-5-methoxypyrimidine-4-carboxylate] | 5 | 42
2 | Nc1c(F)c(-c2ccc(C(F)(F)F)c(F)c2)nc(C(=O)O)c1Cl [Compound 134] | 3 | 12
3 | COC(=O)c1nc(-c2ccc(C(F)(F)F)c(F)c2)c(F)c(N)c1Cl [Compound 165] | 12 | 27

same assay, conditions: CYPSS: sedge (Cyperus difformis, esculentus, iria); probit analysis

Row | Compound | GR50 CYPSS [g ai/ha] | GR80 CYPSS [g ai/ha]
4 | COC(=O)c1nc(-c2ccc(Br)c(F)c2F)nc(N)c1OC [Compound 122, methyl 6-amino-2-(4-bromo-2,3-difluorophenyl)-5-methoxypyrimidine-4-carboxylate] | 1 | 1
5 | Nc1c(F)c(-c2ccc(C(F)(F)F)c(F)c2)nc(C(=O)O)c1Cl [Compound 134] | 6 | 13
6 | COC(=O)c1nc(-c2ccc(C(F)(F)F)c(F)c2)c(F)c(N)c1Cl [Compound 165] | 19 | 67

same assay, conditions: ECHSS: barnyardgrass (Echinochloa crus-galli), junglerice (Echinochloa colonum); probit analysis

Row | Compound | GR50 ECHSS [g ai/ha] | GR80 ECHSS [g ai/ha]
7 | COC(=O)c1nc(-c2ccc(Br)c(F)c2F)nc(N)c1OC [Compound 122, methyl 6-amino-2-(4-bromo-2,3-difluorophenyl)-5-methoxypyrimidine-4-carboxylate] | 6 | 47
8 | Nc1c(F)c(-c2ccc(C(F)(F)F)c(F)c2)nc(C(=O)O)c1Cl [Compound 134] | 1 | 1
9 | COC(=O)c1nc(-c2ccc(C(F)(F)F)c(F)c2)c(F)c(N)c1Cl [Compound 165] | 10 | 24

same assay, conditions: LEFSS: sprangletop (Leptochloa chinensis, Leptochloa dubia); probit analysis

Row | Compound | GR50 LEFSS [g ai/ha] | GR80 LEFSS [g ai/ha]
10 | COC(=O)c1nc(-c2ccc(Br)c(F)c2F)nc(N)c1OC [Compound 122, methyl 6-amino-2-(4-bromo-2,3-difluorophenyl)-5-methoxypyrimidine-4-carboxylate] | >70 | >70
11 | Nc1c(F)c(-c2ccc(C(F)(F)F)c(F)c2)nc(C(=O)O)c1Cl [Compound 134] | 6 | 15
12 | COC(=O)c1nc(-c2ccc(C(F)(F)F)c(F)c2)c(F)c(N)c1Cl [Compound 165] | 24 | 56

same assay, conditions: ORYSS: Oryza sativa (crop); probit analysis

Row | Compound | GR20 ORYSS [g ai/ha]
13 | COC(=O)c1nc(-c2ccc(Br)c(F)c2F)nc(N)c1OC [Compound 122, methyl 6-amino-2-(4-bromo-2,3-difluorophenyl)-5-methoxypyrimidine-4-carboxylate] | 70
14 | Nc1c(F)c(-c2ccc(C(F)(F)F)c(F)c2)nc(C(=O)O)c1Cl [Compound 134] | 5
15 | COC(=O)c1nc(-c2ccc(C(F)(F)F)c(F)c2)c(F)c(N)c1Cl [Compound 165] | 44

same assay, conditions: SCPJU: Japanese bulrush, Scirpus juncoides; probit analysis

Row | Compound | GR50 SCPJU [g ai/ha] | GR80 SCPJU [g ai/ha]
16 | COC(=O)c1nc(-c2ccc(Br)c(F)c2F)nc(N)c1OC [Compound 122, methyl 6-amino-2-(4-bromo-2,3-difluorophenyl)-5-methoxypyrimidine-4-carboxylate] | 1 | 1
17 | Nc1c(F)c(-c2ccc(C(F)(F)F)c(F)c2)nc(C(=O)O)c1Cl [Compound 134] | 1 | 1

same assay, conditions: SEBEX: hemp sesbania, Sesbania exaltata; probit analysis

Row | Compound | GR50 SEBEX [g ai/ha] | GR80 SEBEX [g ai/ha]
18 | COC(=O)c1nc(-c2ccc(Br)c(F)c2F)nc(N)c1OC [Compound 122, methyl 6-amino-2-(4-bromo-2,3-difluorophenyl)-5-methoxypyrimidine-4-carboxylate] | 1 | 1
19 | Nc1c(F)c(-c2ccc(C(F)(F)F)c(F)c2)nc(C(=O)O)c1Cl [Compound 134] | 1 | 1
20 | COC(=O)c1nc(-c2ccc(C(F)(F)F)c(F)c2)c(F)c(N)c1Cl [Compound 165] | 1 | 1

same assay, conditions: post-emergence, 504 h; BRAPP: broadleaf signalgrass, Brachiaria platyphylla; 35 g ai/ha; read-out: Visual Growth Reduction (%) 21 Days After Application BRAPP

Row | Compound | pest or weed control at 35 g/ha [%]
21 | COC(=O)c1nc(-c2ccc(Br)c(F)c2F)nc(N)c1OC [Compound 122, methyl 6-amino-2-(4-bromo-2,3-difluorophenyl)-5-methoxypyrimidine-4-carboxylate] | 75 to 84
22 | Nc1c(F)c(-c2ccc(C(F)(F)F)c(F)c2)nc(C(=O)O)c1Cl [Compound 134] | 95 to 100
23 | COC(=O)c1nc(-c2ccc(C(F)(F)F)c(F)c2)c(F)c(N)c1Cl [Compound 165] | 85 to 94

same assay, conditions: post-emergence, 504 h; BRAPP: broadleaf signalgrass, Brachiaria platyphylla; 70 g ai/ha; read-out: Visual Growth Reduction (%) 21 Days After Application BRAPP

Row | Compound | pest or weed control at 70 g/ha [%]
24 | COC(=O)c1nc(-c2ccc(Br)c(F)c2F)nc(N)c1OC [Compound 122, methyl 6-amino-2-(4-bromo-2,3-difluorophenyl)-5-methoxypyrimidine-4-carboxylate] | 85 to 94
25 | Nc1c(F)c(-c2ccc(C(F)(F)F)c(F)c2)nc(C(=O)O)c1Cl [Compound 134] | 95 to 100
26 | COC(=O)c1nc(-c2ccc(C(F)(F)F)c(F)c2)c(F)c(N)c1Cl [Compound 165] | 95 to 100

same assay, conditions: post-emergence, 504 h; CYPSS: sedge (Cyperus difformis, esculentus, iria); 35 g ai/ha; read-out: Visual Growth Reduction (%) 21 Days After Application CYPSS

Row | Compound | pest or weed control at 35 g/ha [%]
27 | COC(=O)c1nc(-c2ccc(Br)c(F)c2F)nc(N)c1OC [Compound 122, methyl 6-amino-2-(4-bromo-2,3-difluorophenyl)-5-methoxypyrimidine-4-carboxylate] | 95 to 100
28 | Nc1c(F)c(-c2ccc(C(F)(F)F)c(F)c2)nc(C(=O)O)c1Cl [Compound 134] | 95 to 100
29 | COC(=O)c1nc(-c2ccc(C(F)(F)F)c(F)c2)c(F)c(N)c1Cl [Compound 165] | 75 to 84

same assay, conditions: post-emergence, 504 h; CYPSS: sedge (Cyperus difformis, esculentus, iria); 70 g ai/ha; read-out: Visual Growth Reduction (%) 21 Days After Application CYPSS

Row | Compound | pest or weed control at 70 g/ha [%]
30 | COC(=O)c1nc(-c2ccc(Br)c(F)c2F)nc(N)c1OC [Compound 122, methyl 6-amino-2-(4-bromo-2,3-difluorophenyl)-5-methoxypyrimidine-4-carboxylate] | 95 to 100
31 | Nc1c(F)c(-c2ccc(C(F)(F)F)c(F)c2)nc(C(=O)O)c1Cl [Compound 134] | 95 to 100
32 | COC(=O)c1nc(-c2ccc(C(F)(F)F)c(F)c2)c(F)c(N)c1Cl [Compound 165] | 75 to 84

same assay, conditions: post-emergence, 504 h; ECHSS: barnyardgrass (Echinochloa crus-galli), junglerice (Echinochloa colonum); 35 g ai/ha; read-out: Visual Growth Reduction (%) 21 Days After Application ECHSS

Row | Compound | pest or weed control at 35 g/ha [%]
33 | COC(=O)c1nc(-c2ccc(Br)c(F)c2F)nc(N)c1OC [Compound 122, methyl 6-amino-2-(4-bromo-2,3-difluorophenyl)-5-methoxypyrimidine-4-carboxylate] | 75 to 84
34 | Nc1c(F)c(-c2ccc(C(F)(F)F)c(F)c2)nc(C(=O)O)c1Cl [Compound 134] | 95 to 100
35 | COC(=O)c1nc(-c2ccc(C(F)(F)F)c(F)c2)c(F)c(N)c1Cl [Compound 165] | 85 to 94

same assay, conditions: post-emergence, 504 h; ECHSS: barnyardgrass (Echinochloa crus-galli), junglerice (Echinochloa colonum); 70 g ai/ha; read-out: Visual Growth Reduction (%) 21 Days After Application ECHSS

Row | Compound | pest or weed control at 70 g/ha [%]
36 | COC(=O)c1nc(-c2ccc(Br)c(F)c2F)nc(N)c1OC [Compound 122, methyl 6-amino-2-(4-bromo-2,3-difluorophenyl)-5-methoxypyrimidine-4-carboxylate] | 85 to 94
37 | Nc1c(F)c(-c2ccc(C(F)(F)F)c(F)c2)nc(C(=O)O)c1Cl [Compound 134] | 95 to 100
38 | COC(=O)c1nc(-c2ccc(C(F)(F)F)c(F)c2)c(F)c(N)c1Cl [Compound 165] | 95 to 100

same assay, conditions: post-emergence, 504 h; LEFSS: sprangletop (Leptochloa chinensis, Leptochloa dubia); 35 g ai/ha; read-out: Visual Growth Reduction (%) 21 Days After Application LEFSS

Row | Compound | pest or weed control at 35 g/ha [%]
39 | COC(=O)c1nc(-c2ccc(Br)c(F)c2F)nc(N)c1OC [Compound 122, methyl 6-amino-2-(4-bromo-2,3-difluorophenyl)-5-methoxypyrimidine-4-carboxylate] | 0 to 29
40 | Nc1c(F)c(-c2ccc(C(F)(F)F)c(F)c2)nc(C(=O)O)c1Cl [Compound 134] | 95 to 100
41 | COC(=O)c1nc(-c2ccc(C(F)(F)F)c(F)c2)c(F)c(N)c1Cl [Compound 165] | 0 to 29

same assay, conditions: post-emergence, 504 h; LEFSS: sprangletop (Leptochloa chinensis, Leptochloa dubia); 70 g ai/ha; read-out: Visual Growth Reduction (%) 21 Days After Application LEFSS

Row | Compound | pest or weed control at 70 g/ha [%]
42 | COC(=O)c1nc(-c2ccc(Br)c(F)c2F)nc(N)c1OC [Compound 122, methyl 6-amino-2-(4-bromo-2,3-difluorophenyl)-5-methoxypyrimidine-4-carboxylate] | 0 to 29
43 | Nc1c(F)c(-c2ccc(C(F)(F)F)c(F)c2)nc(C(=O)O)c1Cl [Compound 134] | 95 to 100
44 | COC(=O)c1nc(-c2ccc(C(F)(F)F)c(F)c2)c(F)c(N)c1Cl [Compound 165] | 95 to 100

same assay, conditions: post-emergence, 504 h; ORYSS: Oryza sativa; 35 g ai/ha; read-out: Visual Growth Reduction (%) 21 Days After Application ORYSS

Row | Compound | pest or weed control at 35 g/ha [%]
45 | COC(=O)c1nc(-c2ccc(Br)c(F)c2F)nc(N)c1OC [Compound 122, methyl 6-amino-2-(4-bromo-2,3-difluorophenyl)-5-methoxypyrimidine-4-carboxylate] | 0 to 29
46 | Nc1c(F)c(-c2ccc(C(F)(F)F)c(F)c2)nc(C(=O)O)c1Cl [Compound 134] | 60 to 74
47 | COC(=O)c1nc(-c2ccc(C(F)(F)F)c(F)c2)c(F)c(N)c1Cl [Compound 165] | 0 to 29

same assay, conditions: post-emergence, 504 h; ORYSS: Oryza sativa; 70 g ai/ha; read-out: Visual Growth Reduction (%) 21 Days After Application ORYSS

Row | Compound | pest or weed control at 70 g/ha [%]
48 | COC(=O)c1nc(-c2ccc(Br)c(F)c2F)nc(N)c1OC [Compound 122, methyl 6-amino-2-(4-bromo-2,3-difluorophenyl)-5-methoxypyrimidine-4-carboxylate] | 0 to 29
49 | Nc1c(F)c(-c2ccc(C(F)(F)F)c(F)c2)nc(C(=O)O)c1Cl [Compound 134] | 85 to 94
50 | COC(=O)c1nc(-c2ccc(C(F)(F)F)c(F)c2)c(F)c(N)c1Cl [Compound 165] | 30 to 44

same assay, conditions: post-emergence, 504 h; SCPJU: Japanese bulrush, Scirpus juncoides; 35 g ai/ha; read-out: Visual Growth Reduction (%) 21 Days After Application SCPJU

Row | Compound | pest or weed control at 35 g/ha [%]
51 | COC(=O)c1nc(-c2ccc(Br)c(F)c2F)nc(N)c1OC [Compound 122, methyl 6-amino-2-(4-bromo-2,3-difluorophenyl)-5-methoxypyrimidine-4-carboxylate] | 95 to 100

same assay, conditions: post-emergence, 504 h; SCPJU: Japanese bulrush, Scirpus juncoides; 70 g ai/ha; read-out: Visual Growth Reduction (%) 21 Days After Application SCPJU

Row | Compound | pest or weed control at 70 g/ha [%]
52 | COC(=O)c1nc(-c2ccc(Br)c(F)c2F)nc(N)c1OC [Compound 122, methyl 6-amino-2-(4-bromo-2,3-difluorophenyl)-5-methoxypyrimidine-4-carboxylate] | 95 to 100
53 | Nc1c(F)c(-c2ccc(C(F)(F)F)c(F)c2)nc(C(=O)O)c1Cl [Compound 134] | 95 to 100

same assay, conditions: post-emergence, 504 h; SEBEX: hemp sesbania, Sesbania exaltata; 35 g ai/ha; read-out: Visual Growth Reduction (%) 21 Days After Application SEBEX

Row | Compound | pest or weed control at 35 g/ha [%]
54 | COC(=O)c1nc(-c2ccc(Br)c(F)c2F)nc(N)c1OC [Compound 122, methyl 6-amino-2-(4-bromo-2,3-difluorophenyl)-5-methoxypyrimidine-4-carboxylate] | 95 to 100
55 | Nc1c(F)c(-c2ccc(C(F)(F)F)c(F)c2)nc(C(=O)O)c1Cl [Compound 134] | 95 to 100
56 | COC(=O)c1nc(-c2ccc(C(F)(F)F)c(F)c2)c(F)c(N)c1Cl [Compound 165] | 95 to 100

same assay, conditions: post-emergence, 504 h; SEBEX: hemp sesbania, Sesbania exaltata; 70 g ai/ha; read-out: Visual Growth Reduction (%) 21 Days After Application SEBEX

Row | Compound | pest or weed control at 70 g/ha [%]
57 | COC(=O)c1nc(-c2ccc(Br)c(F)c2F)nc(N)c1OC [Compound 122, methyl 6-amino-2-(4-bromo-2,3-difluorophenyl)-5-methoxypyrimidine-4-carboxylate] | 95 to 100
58 | Nc1c(F)c(-c2ccc(C(F)(F)F)c(F)c2)nc(C(=O)O)c1Cl [Compound 134] | 95 to 100
59 | COC(=O)c1nc(-c2ccc(C(F)(F)F)c(F)c2)c(F)c(N)c1Cl [Compound 165] | 95 to 100
